Reference: patent publication US11331299B2, “Medicinal use of serrulatane diterpenes” (The University of Sydney, priority 2016, dated 2022)
Where two headings read alike, the source gives them in different places.

Key:
cannabinoid CB2 (h) = cannabinoid CB2 (h) (Homo sapiens, UniProt P34972); test: Bioprint radioligand binding assay
[1] = test system: primary human keratinocytes; test: Keratinocyte cell viability, CCL2 assay (assay number 1243); assay type: cell-based; settings: Homo sapiens, Keratinocyte; read-out: Inhibition of cell viability, Rel EC50
[2] = as above; assay type: cell-based, human; settings: human; read-out: Inhibition of cell viability, Max Effect
adenosine A3 (h) = adenosine A3 (h) (Homo sapiens, UniProt P0DMS8); test: Bioprint radioligand binding assay
Chain of adenosine A3 (h) (P0DMS8 whole entry): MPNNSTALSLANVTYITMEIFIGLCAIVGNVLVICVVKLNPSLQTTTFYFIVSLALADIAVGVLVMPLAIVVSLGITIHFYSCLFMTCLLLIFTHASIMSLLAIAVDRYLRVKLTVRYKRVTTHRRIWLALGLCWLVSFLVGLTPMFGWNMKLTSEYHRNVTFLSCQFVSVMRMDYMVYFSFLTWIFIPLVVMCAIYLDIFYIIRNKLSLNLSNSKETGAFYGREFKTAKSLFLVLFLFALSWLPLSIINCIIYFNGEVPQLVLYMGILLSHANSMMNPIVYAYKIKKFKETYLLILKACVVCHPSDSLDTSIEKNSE

[3] = test system: human CD4-positive T-cells; test: T-cell viability/proliferation (assay number 1299); assay type: cell-based
[4] = PBMC cell viability (assay number 1322); assay type: cell-based, human; settings: human; read-out: Inhibition of cell viability, Max Effect
human PBMC = test: PBMC cell viability (assay number 1322); assay type: cell-based; settings: Homo sapiens, PBMC; read-out: Inhibition of cell viability, Rel EC50
HMEC = test: OncoPanel normal cell proliferation assay (3-day); assay type: cell-based; settings: Homo sapiens, 72 h, HMEC, mammary epithelial, 3-day incubation
[5] = test system: IL-2 secretion from human CD4-positive T-cells stimulated with antiCD2/antiCD3/antiCD28-coated beads; test: T-cell IL-2 assay; assay type: cell-based
[6] = test system: Toll-like receptor 4 (TLR4) activation on human peripheral blood mononuclear cells (PBMC's); test: TLR4 inhibition assay, LPS-induced cytokine release; assay type: cell-based; settings: for IC50: Homo sapiens, PBMC, 24 h, 24-hour LPS stimulation
COX2 (h) = COX2 (h) (Homo sapiens, UniProt P35354); test: Bioprint enzyme assay; assay type: biochemical
Chain of COX2 (h) (P35354 18-604): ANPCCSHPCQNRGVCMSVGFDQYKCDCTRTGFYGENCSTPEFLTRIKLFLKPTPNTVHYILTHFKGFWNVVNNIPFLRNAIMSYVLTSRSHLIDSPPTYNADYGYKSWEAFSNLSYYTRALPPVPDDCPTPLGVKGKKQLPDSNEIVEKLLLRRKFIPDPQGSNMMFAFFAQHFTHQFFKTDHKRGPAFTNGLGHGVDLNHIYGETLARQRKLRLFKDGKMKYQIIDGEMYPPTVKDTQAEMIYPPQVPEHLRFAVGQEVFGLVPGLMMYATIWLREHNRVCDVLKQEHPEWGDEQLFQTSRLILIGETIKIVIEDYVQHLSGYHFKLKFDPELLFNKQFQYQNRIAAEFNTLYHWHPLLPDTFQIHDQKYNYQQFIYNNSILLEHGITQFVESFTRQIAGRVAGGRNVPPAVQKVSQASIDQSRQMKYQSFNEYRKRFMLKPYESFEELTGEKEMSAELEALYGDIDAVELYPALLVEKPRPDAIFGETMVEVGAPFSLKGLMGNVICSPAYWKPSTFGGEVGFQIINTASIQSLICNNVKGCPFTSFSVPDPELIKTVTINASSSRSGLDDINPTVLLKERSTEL

[7] = target: receptors (Bioprint panel) (Homo sapiens, UniProt P41968); test: biochemical; assay type: binding; settings: MELANOCORTIN MC3 (h) (agonist radioligand); 10 μM; read-out: % Inhibition of Control Specific Binding
Chain of receptors (Bioprint panel) (Homo sapiens, UniProt P41968) (P41968 whole entry): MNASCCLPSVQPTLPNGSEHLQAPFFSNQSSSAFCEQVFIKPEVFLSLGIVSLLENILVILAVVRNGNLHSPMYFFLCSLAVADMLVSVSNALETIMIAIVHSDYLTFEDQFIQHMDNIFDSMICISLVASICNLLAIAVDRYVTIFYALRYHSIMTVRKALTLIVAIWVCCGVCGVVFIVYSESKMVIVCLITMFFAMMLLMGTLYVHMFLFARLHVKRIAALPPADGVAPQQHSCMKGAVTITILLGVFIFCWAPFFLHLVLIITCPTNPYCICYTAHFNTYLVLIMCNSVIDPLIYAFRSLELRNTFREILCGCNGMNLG

[8] = target: receptors (Bioprint panel) (Homo sapiens, UniProt P50406); test: biochemical; assay type: binding; settings: read-out: % Inhibition of Control Specific Binding
[9] = target: receptors (Bioprint panel) (Homo sapiens, UniProt P35372); test: biochemical; assay type: binding; settings: OPIOD & OPIOID-LIKE mu (MOP) (h) (agonist radioligand); 10 μM; read-out: % Inhibition of Control Specific Binding
[10] = target: receptors (Bioprint panel) (Homo sapiens, UniProt Q13639); test: biochemical; assay type: binding; settings: read-out: % Inhibition of Control Specific Binding
[11] = target: receptors (Bioprint panel) (Homo sapiens, UniProt P03372); test: biochemical; assay type: binding; settings: Estrogen ER alpha (h) (agonist radioligand); 10 μM; read-out: % Inhibition of Control Specific Binding
[12] = target: receptors (Bioprint panel) (Homo sapiens, UniProt P08173); test: biochemical; assay type: binding; settings: […] M4 (h) (antagonist radioligand); 10 μM; read-out: % Inhibition of Control Specific Binding
[13] = target: T1, receptors (Bioprint panel) (Homo sapiens, UniProt P30556); test: biochemical; assay type: binding; settings: A[…] AT1 (h) (antagonist radioligand); 10 μM; read-out: % Inhibition of Control Specific Binding
T1 construct: other: ANGIOTENSIN II AT1 (h) (antagonist radioligand); 10 μM
T1 sequence (P30556 whole entry): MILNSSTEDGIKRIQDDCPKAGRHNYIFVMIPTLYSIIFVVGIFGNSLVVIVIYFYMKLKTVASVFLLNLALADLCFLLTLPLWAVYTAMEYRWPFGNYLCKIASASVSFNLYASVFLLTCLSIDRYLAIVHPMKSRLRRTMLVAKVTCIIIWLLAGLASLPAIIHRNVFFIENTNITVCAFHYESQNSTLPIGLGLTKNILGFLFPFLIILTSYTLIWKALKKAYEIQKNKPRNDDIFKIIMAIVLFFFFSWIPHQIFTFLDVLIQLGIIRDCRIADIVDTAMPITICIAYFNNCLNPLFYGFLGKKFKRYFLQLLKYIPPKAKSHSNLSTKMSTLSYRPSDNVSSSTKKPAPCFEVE

[14] = target: receptors (Bioprint panel) (Homo sapiens, UniProt Q9UBS5); test: biochemical; assay type: binding; settings: GABA GABAB(1b) (h) (antagonist radioligand); 10 μM; read-out: % Inhibition of Control Specific Binding
[15] = target: cholecystokinin CCK1 (CCKA) (h) (Homo sapiens, UniProt P32238); test: Bioprint radioligand binding assay
Chain of cholecystokinin CCK1 (CCKA) (h) (P32238 whole entry): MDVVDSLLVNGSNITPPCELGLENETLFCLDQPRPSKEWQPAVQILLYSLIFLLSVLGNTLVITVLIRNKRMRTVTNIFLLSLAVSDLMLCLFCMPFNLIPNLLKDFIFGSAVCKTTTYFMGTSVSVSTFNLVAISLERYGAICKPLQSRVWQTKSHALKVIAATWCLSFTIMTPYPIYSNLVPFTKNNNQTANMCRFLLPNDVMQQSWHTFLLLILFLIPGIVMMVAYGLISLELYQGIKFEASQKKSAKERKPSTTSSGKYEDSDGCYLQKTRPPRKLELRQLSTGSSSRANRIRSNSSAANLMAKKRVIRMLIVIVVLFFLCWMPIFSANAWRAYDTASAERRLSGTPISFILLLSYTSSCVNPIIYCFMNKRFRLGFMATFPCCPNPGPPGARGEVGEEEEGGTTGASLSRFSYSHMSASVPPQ

hSMYD2 = hSMYD2 (Homo sapiens, UniProt Q9NRG4); settings: read-out: Reference: (IC50 not given); cited from earlier work
Chain of hSMYD2 (Q9NRG4 whole entry): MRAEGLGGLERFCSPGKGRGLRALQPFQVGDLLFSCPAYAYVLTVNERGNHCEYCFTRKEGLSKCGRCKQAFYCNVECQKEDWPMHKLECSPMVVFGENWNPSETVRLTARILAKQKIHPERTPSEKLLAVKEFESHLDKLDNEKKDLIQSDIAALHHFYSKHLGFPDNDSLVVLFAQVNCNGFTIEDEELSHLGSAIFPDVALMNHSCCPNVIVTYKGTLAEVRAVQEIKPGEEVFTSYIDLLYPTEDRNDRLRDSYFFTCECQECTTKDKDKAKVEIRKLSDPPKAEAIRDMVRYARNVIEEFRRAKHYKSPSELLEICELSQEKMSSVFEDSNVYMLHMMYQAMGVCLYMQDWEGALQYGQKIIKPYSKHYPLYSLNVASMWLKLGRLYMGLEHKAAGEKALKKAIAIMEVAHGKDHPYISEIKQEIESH

SUV4-20H2 (h) = SUV4-20H2 (h) (Homo sapiens, UniProt Q86Y97); settings: read-out: Reference: (IC50 not given); cited from earlier work
Chain of SUV4-20H2 (h) (Q86Y97 whole entry): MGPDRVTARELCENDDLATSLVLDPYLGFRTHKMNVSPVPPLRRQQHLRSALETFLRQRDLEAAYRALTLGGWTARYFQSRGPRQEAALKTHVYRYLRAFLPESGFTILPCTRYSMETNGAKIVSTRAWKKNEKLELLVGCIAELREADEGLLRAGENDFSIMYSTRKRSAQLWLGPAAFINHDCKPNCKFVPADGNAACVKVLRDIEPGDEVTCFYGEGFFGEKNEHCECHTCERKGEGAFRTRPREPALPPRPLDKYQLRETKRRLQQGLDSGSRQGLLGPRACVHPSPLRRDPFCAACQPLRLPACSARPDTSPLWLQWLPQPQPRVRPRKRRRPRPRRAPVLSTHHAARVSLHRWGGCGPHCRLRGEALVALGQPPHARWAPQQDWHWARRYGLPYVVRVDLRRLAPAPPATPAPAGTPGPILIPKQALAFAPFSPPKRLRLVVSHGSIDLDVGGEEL

hDNMT3a = hDNMT3a (Homo sapiens, UniProt Q9Y6K1); settings: read-out: Reference: IC50; cited from earlier work
Chain of hDNMT3a (Q9Y6K1 whole entry, looked up): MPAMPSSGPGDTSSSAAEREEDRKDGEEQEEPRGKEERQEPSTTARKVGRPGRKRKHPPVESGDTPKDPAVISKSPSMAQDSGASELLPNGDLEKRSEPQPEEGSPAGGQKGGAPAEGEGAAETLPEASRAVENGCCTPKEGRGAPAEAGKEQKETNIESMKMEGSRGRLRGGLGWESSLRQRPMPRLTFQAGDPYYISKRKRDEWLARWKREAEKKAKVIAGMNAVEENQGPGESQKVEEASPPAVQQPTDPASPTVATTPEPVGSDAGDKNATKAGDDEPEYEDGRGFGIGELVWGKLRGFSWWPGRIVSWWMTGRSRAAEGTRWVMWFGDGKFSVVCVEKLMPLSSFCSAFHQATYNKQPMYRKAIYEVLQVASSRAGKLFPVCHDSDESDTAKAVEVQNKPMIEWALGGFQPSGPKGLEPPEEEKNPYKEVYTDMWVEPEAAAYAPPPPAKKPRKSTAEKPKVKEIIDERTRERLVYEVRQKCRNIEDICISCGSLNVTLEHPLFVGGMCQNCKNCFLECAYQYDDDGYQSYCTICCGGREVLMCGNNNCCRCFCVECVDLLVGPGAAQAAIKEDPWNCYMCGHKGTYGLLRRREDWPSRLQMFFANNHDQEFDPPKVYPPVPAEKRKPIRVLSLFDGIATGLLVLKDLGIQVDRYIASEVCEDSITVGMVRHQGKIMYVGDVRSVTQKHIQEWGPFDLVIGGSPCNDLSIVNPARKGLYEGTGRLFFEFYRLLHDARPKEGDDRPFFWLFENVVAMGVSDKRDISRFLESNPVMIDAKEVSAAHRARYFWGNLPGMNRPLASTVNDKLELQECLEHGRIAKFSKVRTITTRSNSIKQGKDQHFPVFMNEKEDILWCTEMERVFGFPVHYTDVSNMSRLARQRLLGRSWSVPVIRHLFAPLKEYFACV

MLL3(h) complex = MLL3(h) complex (Homo sapiens, UniProt Q8NEZ4); settings: read-out: Reference: (IC50 not given); cited from earlier work
DNMT3B/DNMT3L (h) = DNMT3B/DNMT3L (h) (Homo sapiens, UniProt Q9UBC3); settings: read-out: Reference IC50; cited from earlier work
PRMT3 (h) = PRMT3 (h) (Homo sapiens, UniProt O60678); settings: read-out: Reference: (IC50 not given); cited from earlier work
Chain of PRMT3 (h) (O60678 whole entry): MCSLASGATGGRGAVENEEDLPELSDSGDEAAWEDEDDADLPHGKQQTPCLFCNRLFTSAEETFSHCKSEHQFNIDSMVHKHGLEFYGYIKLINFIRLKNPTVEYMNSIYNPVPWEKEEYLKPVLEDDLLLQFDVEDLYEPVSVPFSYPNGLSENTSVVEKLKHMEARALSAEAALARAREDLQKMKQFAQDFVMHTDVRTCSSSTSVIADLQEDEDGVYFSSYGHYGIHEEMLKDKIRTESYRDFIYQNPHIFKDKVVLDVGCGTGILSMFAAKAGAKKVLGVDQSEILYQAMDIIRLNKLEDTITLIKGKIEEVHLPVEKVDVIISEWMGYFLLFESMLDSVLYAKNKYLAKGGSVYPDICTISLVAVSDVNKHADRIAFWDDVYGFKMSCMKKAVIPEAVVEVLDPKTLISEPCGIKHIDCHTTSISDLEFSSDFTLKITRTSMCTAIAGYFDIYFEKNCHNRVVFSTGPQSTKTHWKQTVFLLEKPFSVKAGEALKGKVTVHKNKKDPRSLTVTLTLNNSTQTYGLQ

PRDM9 (h) = PRDM9 (h) (Homo sapiens, UniProt Q9NQV7); settings: read-out: Reference: (IC50 not given); cited from earlier work
[16] = read-out: % inhibition of control specific binding

Chain of cannabinoid CB2 (h) (P34972 whole entry): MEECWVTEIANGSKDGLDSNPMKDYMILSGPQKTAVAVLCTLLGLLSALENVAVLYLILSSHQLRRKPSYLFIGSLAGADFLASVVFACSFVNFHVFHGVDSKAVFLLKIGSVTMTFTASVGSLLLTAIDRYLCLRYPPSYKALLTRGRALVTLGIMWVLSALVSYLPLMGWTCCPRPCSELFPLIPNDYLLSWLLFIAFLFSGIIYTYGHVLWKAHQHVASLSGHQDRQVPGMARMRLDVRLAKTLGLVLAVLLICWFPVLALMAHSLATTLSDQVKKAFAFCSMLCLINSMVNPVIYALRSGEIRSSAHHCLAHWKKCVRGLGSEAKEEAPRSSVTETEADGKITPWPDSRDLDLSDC

CC(C)=CCC[C@H](CO)[C@@H]1CC[C@@H](C)c2c1cc(C)c(O)c2O [Compound 1, 7,8,18-trihydroxyserrulat-14-ene]
inhibition at 10 µM (cannabinoid CB2 (h); CANNABINOID CB2 (h) (agonist radioligand), read-out: % Inhibition of Control Specific Binding): 71% | inhibition at 10 µM (cannabinoid CB2 (h); [16]): 71% | EC50 [1]: 0.708 µM | cytotoxicity [2]: 103% | inhibition at 10 µM (adenosine A3 (h); ADENOSINE A3 (h) (agonist radioligand), read-out: % Inhibition of Control Specific Binding): 92% | inhibition at 10 µM (adenosine A3 (h); [16]): 92% | Emax ([3]; read-out: Inhibition of cell proliferation, Max Effect): 123% | EC50 ([3]; read-out: Inhibition of cell proliferation, Rel EC50): 0.587 µM | cytotoxicity at 3 days [4]: 101% | EC50 (human PBMC): 0.542 µM | EC50 (HMEC; read-out: Cell Count EC50): 30 µM | GI50 (HMEC; read-out: Cell Count GI50): 6.39 µM | IC50 (HMEC; read-out: Cell Count IC50): 30 µM | Emax ([5]; read-out: Inhibition of IL-2 release, Max Effect): 98% | EC50 ([5]; read-out: Inhibition of IL-2 release, Rel EC50): 0.327 µM | IC50 ([6]; read-out: IC50, LPS-induced IL-1β release): 6.6 µM | IC50 ([6]; read-out: IC50, LPS-induced IL-6 release): 8.8 µM | IC50 ([6]; read-out: IC50, LPS-induced IL-10 release): 4.3 µM | IC50 ([6]; read-out: IC50, LPS-induced TNFα release): 8.9 µM | IC50 ([6]; I-1β, human PBMC, read-out: LPS-induced cytokine IC50): 6.6 µM | IC50 ([6]; IL-6, human PBMC, read-out: LPS-induced cytokine IC50): 8.8 µM | IC50 ([6]; IL-10, human PBMC, read-out: LPS-induced cytokine IC50): 4.3 µM | IC50 ([6]; TNF-α, human PBMC, read-out: LPS-induced cytokine IC50): 8.9 µM | inhibition of the secretion of all cytokines ([6]; top test concentration): moderate to strong inhibition | inhibition at 10 µM (COX2 (h); COX2(h), read-out: % Inhibition of Control Values): 74% | inhibition at 10 µM (COX2 (h); read-out: % inhibition of control enzyme activity): 74% | inhibition at 10 µM [7]: 60% | inhibition at 10 µM [8]: 42% | inhibition at 10 µM [9]: 43% | inhibition at 10 µM [10]: 2% | inhibition at 10 µM [11]: 40% | inhibition at 10 µM [12]: 19% | inhibition at 10 µM [13]: 60% | inhibition at 10 µM [14]: -17% | inhibition at 10 µM ([15]; CHOLECYSTOKININ CCK1 (CCKA) (h) (agonist radioligand), read-out: % Inhibition of Control Specific Binding): 81% | inhibition at 10 µM [15, 16]: 81%

Nc1ncnc2c1ncn2[C@@H]1O[C@H](CSCC[C@H](N)C(=O)O)[C@@H](O)[C@H]1O [SAH]
IC50 (hSMYD2): 0.16 µM | IC50 (SUV4-20H2 (h)): 24 µM | IC50 (hDNMT3a): 0.052 µM | IC50 (MLL3(h) complex): 0.97 µM | IC50 (DNMT3B/DNMT3L (h)): 0.045 µM | IC50 (PRMT3 (h)): 0.86 µM | IC50 (PRDM9 (h)): 370 µM
